Assay results: patent publication US20250333407A1, “Compounds and Their Use for Treatment of Hemoglobinopathies” (Bristol-Myers Squibb Company, priority 2024, published 2025)

How the values were obtained:
Format in all cases: cell-based
[1] = biological target: T1, ZBTB7A (Homo sapiens, UniProt O95365+Q96SW2); assay: HUDEP-2 ZBTB7A HiBiT degradation assay; settings: HiBiT-tagged ZBTB7A degradation in HUDEP-2 cells, 24 hours of treatment; read-out: ZBTB7A EC50
T1 construct: HUDEP-2 cells engineered to express a HiBiT tag in either the WIZ (Widely interspaced zinc finger) or ZBTB7A
T1 sequence (O95365 whole entry): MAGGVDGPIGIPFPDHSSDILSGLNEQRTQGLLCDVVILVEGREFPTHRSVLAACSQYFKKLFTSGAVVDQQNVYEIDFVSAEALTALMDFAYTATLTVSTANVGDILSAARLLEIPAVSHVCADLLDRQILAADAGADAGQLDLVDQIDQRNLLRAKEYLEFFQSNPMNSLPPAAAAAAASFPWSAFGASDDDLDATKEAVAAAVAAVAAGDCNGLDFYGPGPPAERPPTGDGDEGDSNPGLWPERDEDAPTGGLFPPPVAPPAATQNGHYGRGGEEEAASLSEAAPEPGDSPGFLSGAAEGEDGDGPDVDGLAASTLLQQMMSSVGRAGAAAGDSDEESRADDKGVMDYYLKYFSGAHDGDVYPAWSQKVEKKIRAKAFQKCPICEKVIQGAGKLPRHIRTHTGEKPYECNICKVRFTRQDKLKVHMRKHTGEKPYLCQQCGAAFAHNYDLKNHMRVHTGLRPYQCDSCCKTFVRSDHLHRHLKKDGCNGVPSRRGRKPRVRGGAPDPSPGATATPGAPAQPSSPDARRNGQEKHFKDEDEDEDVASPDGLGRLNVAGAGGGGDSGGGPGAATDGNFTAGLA
T1 sequence (Q96SW2 whole entry): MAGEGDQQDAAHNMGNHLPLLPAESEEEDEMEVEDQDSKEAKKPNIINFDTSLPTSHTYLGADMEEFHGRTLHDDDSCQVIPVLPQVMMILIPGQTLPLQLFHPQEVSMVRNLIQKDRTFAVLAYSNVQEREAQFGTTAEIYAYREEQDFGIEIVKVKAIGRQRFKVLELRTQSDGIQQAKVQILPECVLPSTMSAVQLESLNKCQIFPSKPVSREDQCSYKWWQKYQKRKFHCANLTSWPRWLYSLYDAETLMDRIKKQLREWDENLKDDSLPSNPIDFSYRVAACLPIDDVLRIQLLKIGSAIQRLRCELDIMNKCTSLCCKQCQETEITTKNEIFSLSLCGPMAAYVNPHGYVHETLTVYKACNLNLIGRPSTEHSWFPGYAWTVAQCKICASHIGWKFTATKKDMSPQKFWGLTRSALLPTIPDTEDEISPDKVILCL
T1 sequence (Q16531 whole entry partner): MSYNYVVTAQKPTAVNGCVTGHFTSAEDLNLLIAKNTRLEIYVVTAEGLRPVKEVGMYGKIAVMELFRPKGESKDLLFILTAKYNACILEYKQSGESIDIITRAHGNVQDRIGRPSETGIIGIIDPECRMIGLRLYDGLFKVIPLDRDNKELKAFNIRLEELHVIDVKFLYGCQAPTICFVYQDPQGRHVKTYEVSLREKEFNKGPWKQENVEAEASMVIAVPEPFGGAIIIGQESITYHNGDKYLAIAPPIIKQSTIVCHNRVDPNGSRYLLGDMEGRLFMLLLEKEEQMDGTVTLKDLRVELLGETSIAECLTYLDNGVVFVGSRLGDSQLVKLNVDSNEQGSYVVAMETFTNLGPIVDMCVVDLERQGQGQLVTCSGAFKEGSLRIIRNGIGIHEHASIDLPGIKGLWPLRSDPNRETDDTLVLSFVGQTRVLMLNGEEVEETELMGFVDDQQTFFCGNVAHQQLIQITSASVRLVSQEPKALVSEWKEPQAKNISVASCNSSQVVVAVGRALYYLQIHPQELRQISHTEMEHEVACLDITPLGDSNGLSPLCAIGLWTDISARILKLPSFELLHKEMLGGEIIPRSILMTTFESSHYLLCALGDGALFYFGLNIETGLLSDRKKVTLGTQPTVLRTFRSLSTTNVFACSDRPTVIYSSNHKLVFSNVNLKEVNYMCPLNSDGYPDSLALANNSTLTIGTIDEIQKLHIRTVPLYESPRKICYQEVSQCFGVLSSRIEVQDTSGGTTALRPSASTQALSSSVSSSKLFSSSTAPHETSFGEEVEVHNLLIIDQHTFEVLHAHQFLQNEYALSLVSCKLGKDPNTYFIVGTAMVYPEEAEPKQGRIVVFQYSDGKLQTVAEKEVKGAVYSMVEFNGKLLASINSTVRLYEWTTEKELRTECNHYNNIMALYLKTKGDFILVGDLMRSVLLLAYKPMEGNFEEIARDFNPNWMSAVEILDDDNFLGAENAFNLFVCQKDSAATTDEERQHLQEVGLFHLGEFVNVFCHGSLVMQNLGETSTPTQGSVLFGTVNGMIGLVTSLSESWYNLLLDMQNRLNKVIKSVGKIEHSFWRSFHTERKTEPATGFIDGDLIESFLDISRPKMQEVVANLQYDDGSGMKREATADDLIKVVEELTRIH
Experimental: (§1) WIZ Assay and ZBTB7A EC50 Assays. The HiBiT degradation assays for WIZ and ZBTB7A in HUDEP-2 cells were performed as described below. HUDEP-2 cells engineered to express a HiBiT tag in either the WIZ (Widely interspaced zinc finger) or ZBTB7A (Zinc Finger And BTB Domain Containing 7A) proteins were maintained in low attachment flasks in StemSpan SFEM II media supplemented with Penicillin-Streptomycin (50 U/mL), rhSCF (50 ng/mL), rhEPO (3 IU/mL), dexamethasone (0.4 μg/mL) and doxycycline (1 μg/mL). Prior to start of the assay, cell count and viability were measured by trypan blue exclusion using the Vi-cell XR cell viability analyzer.
For the HUDEP-2 ZBTB7A HiBiT assay, cell count and viability were measured by trypan blue exclusion using the Vi-cell XR cell viability analyzer and the cells were transferred to a 50 mL conical and centrifuged at 500 g for five minutes. Cells were resuspended in fresh IMDM media supplemented with L-Glutamine (1×), Penicillin-Streptomycin (50 U/mL), holo-transferrin (330 μg/mL), heparin (2 IU/mL), r-human Insulin (10 μg/mL), rhEPO (3 IU/mL), rhSCF (100 ng/mL)+Dox (1 μg/mL) and 5% human plasma in low attachment flasks, which were placed in a 37° C. incubator with 5% CO2. After 48 hours, cell count and viability were measured by trypan blue exclusion using the Vi-cell XR cell viability analyzer. The HUDEP-2 ZBTB7A cells were transferred to a 50 mL conical, centrifuged at 500 g for five minutes and resuspended at a density of 1.0×10^6 cells/ml in IMDM media supplemented with L-Glutamine (1×), Penicillin-Streptomycin (50 U/mL), holo-transferrin (330 μg/mL), heparin (2 IU/mL), r-human Insulin (10 μg/mL), rhEPO (3 IU/mL), rhSCF (100 ng/mL)+Dox (1 μg/mL) and 5% human plasma. Forty microliters of cell suspension was dispensed into 384-well Low Flange White Flat Bottom Polystyrene TC-treated Microplates containing pre-dispensed compounds, using a VIAFLO 384 liquid hander, and placed in a 37° C. incubator with 5% CO2. […] After 24 hours of treatment, 40 μL Nano-Glo HiBiT Lytic Detection System reagent was dispensed into each well using a VIAFLO 384 liquid hander. Plates were incubated for 25 minutes at room temperature and the luminescence was read as relative luminescent units using the EnVision plate reader. EC50 and Y-min values were calculated using curves calculated from dotmatics software after the normalization to the DMSO control of 10 different concentrations: 10, 3.33, 1.11, 0.37, 0.12, 0.04 0.0137, 0.0046, 0.0015 and […] respectively.

[2] = biological target: T2, WIZ (Homo sapiens, UniProt O95785+Q96SW2); assay: HUDEP-2 WIZ HiBiT degradation assay; settings: HiBiT-tagged WIZ degradation in HUDEP-2 cells, 24 hours of treatment; read-out: WIZ EC50
T2 construct: HUDEP-2 cells engineered to express a HiBiT tag in either the WIZ (Widely interspaced zinc finger) or ZBTB7A
T2 sequence (O95785 whole entry): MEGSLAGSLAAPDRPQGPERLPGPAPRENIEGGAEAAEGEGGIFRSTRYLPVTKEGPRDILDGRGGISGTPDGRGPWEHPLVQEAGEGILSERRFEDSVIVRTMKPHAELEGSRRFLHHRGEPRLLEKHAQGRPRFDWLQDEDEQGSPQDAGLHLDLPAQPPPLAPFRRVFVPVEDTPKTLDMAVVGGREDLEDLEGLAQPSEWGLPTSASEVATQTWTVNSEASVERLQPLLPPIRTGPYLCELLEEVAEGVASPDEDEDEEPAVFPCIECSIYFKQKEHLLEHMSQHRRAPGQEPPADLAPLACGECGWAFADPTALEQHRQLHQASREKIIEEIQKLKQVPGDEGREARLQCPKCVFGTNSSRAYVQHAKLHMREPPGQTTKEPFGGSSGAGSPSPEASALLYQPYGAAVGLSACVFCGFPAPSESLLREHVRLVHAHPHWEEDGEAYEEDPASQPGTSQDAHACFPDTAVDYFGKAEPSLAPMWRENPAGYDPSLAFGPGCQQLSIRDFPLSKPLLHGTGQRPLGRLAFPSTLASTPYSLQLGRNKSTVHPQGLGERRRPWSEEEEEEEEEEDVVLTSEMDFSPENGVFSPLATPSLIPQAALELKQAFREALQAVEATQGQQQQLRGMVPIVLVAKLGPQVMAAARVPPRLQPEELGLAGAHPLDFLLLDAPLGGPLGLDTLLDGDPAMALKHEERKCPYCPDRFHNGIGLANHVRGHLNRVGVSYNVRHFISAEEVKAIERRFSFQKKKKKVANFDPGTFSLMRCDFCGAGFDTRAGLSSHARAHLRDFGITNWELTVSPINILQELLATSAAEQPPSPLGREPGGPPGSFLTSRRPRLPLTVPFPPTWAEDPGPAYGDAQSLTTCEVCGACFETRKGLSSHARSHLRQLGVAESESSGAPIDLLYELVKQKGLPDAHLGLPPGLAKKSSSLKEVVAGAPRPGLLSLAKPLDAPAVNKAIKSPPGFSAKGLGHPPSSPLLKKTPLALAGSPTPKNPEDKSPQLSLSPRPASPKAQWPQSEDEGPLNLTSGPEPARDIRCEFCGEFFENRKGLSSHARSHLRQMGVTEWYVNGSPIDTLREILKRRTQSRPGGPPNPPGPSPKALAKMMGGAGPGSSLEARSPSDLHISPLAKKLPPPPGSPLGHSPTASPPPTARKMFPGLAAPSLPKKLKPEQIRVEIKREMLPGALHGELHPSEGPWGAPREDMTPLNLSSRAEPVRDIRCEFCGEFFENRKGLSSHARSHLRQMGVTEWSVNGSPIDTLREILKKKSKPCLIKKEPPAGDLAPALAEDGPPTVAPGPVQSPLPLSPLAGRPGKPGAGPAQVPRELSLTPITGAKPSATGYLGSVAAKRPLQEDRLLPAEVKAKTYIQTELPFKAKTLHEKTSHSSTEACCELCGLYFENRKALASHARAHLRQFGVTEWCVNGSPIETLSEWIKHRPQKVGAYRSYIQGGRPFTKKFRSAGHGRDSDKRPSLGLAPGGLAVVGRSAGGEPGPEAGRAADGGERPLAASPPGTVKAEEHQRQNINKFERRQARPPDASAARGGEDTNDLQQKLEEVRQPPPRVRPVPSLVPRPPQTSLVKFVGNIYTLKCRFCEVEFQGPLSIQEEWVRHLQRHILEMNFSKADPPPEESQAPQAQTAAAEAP
T2 sequence (Q96SW2 whole entry): as the sequence (Q96SW2 whole entry) above
T2 sequence (Q16531 whole entry partner): as the sequence (Q16531 whole entry partner) above
Experimental: as §1
For the HUDEP-2 WIZ HiBiT assay, cells were transferred to a 50 mL conical and centrifuged at 500 g for five minutes. Cells were resuspended in fresh StemSpan SFEM II media supplemented with Penicillin-Streptomycin (50 U/mL), rhSCF (50 ng/mL), rhEPO (3 IU/mL), dexamethasone (0.4 μg/mL) and doxycycline (1 μg/mL) at a density of 1.0×10^6 cells/ml. Forty microliters of cell suspension was dispensed into 384-well Low Flange White Flat Bottom Polystyrene TC-treated Microplates containing pre-dispensed compounds, using a VIAFLO 384 liquid hander, and placed in a 37° C. incubator with 5% CO2. […] After 24 hours of treatment, 40 μL Nano-Glo HiBiT Lytic Detection System reagent was dispensed into each well using a VIAFLO 384 liquid hander. Plates were incubated for 25 minutes at room temperature and the luminescence was read as relative luminescent units using the EnVision plate reader. EC50 and Y-min values were calculated using curves calculated from dotmatics software after the normalization to the DMSO control of 10 different concentrations: 10, 3.33, 1.11, 0.37, 0.12, 0.04 0.0137, 0.0046, 0.0015 and […] respectively.

[3] = system: HbF; assay: HbF HiBiT induction assay in HUDEP-2 cells; settings: HUDEP-2 cells with HiBiT tag in HBG1/2, 72 hours of treatment; area under the dose response curve, higher AUC = greater HbF induction
Experimental: HbF HiBiT induction assay. The HiBiT induction assay for HbF in HUDEP-2 cells was performed as described below. HUDEP-2 cells engineered to express a HiBiT tag in HBG1/2 were maintained at a density of 0.1-1×10^6 cells/ml in StemSpan SFEM II supplemented with 1% penicillin/streptomycin, hSCF (50 ng/mL), erythropoietin (EPO; 3 IU/mL), dexamethasone (DEX; 0.4 μg/mL), and doxycycline hyclate (DOX; 1 μg/mL). The cells were cultured in low adherence flasks, in a humidified incubator, set at 37° C. with 5% CO2. Cell counts and viability were measured by trypan blue exclusion using the Vi-CELL XR cell viability analyzer and the cell growth was consistently maintained in log phase.
Prior to the start of experiments, HbF HiBiT-tagged HUDEP-2 cells were transferred to a 50 mL conical and centrifuged at 500×g for 5 minutes, the supernatant removed, and the pellet washed in 5 mL of 1×PBS. The washed cells were centrifuged again at 500×g for 5 minutes and resuspended in IMDM containing; 1×glutamine, 1×penicillin/streptomycin, holo-transferrin (330 μg/mL), heparin (2 IU/mL), r-human insulin (10 μg/mL), EPO (3 IU/mL), 5% human plasma, hSCF (100 ng/mL) and DOX (1 μg/mL) to a final density of 0.3×10^6 cells/mL. Forty microliters of cell suspension were dispensed into 384-well Low Flange White Flat Bottom Polystyrene TC-treated Microplates containing pre-dispensed compounds, using a VIAFLO 384 liquid hander, and placed in a humidified incubator at 37° C. with 5% CO2. […] After 72 hours of treatment, 40 μL of Nano-Glo HiBiT Lytic Solution (prepared according to manufacturer's instructions) were dispensed into each well using a VIAFLO 384 liquid handler, and the plates were shaken for 20 seconds. Plates were incubated for 20 minutes at room temperature, and the luminescence was read as relative luminescent units using an EnVision plate reader.
Dose response curves were generated, and EC50, Ymax, and then area under the curve (AUC) values were calculated. HbF induction was measured using the calculated area under the curve (AUC) value, with higher AUC values indicative of greater HbF induction relative to lower AUC values.

For `Cc1cc(-c2cc3c(cc2Nc2cccc4c2C(=O)N([C@H]2CCC(=O)NC2=O)C4=O)N(C2CC2)C(=O)CC3)ccn1` [Compound 88, (S)-4-((1-cyclopropyl-6-(2-methylpyridin-4-yl)-2-oxo-1,2,3,4-tetrahydroquinolin-7-yl)amino)-2-(2,6-dioxopiperidin-3-yl)isoindoline-1,3-dione], the DC50 [1] was 60 nM, the DC50 [2] was 8 nM and the “HBF AUC” value [3] was “+ (+ = 15 ≤ AUC < 100)”.

For `Cc1cc(-c2c(Nc3cccc4c3C(=O)N([C@H]3CCC(=O)NC3=O)C4=O)cc3c(c2F)[C@@H](C)OC(=O)N3C)c(F)cn1` [Compound 82, 2-((S)-2,6-dioxopiperidin-3-yl)-4-(((4R)-5-fluoro-6-(5-fluoro-2-methylpyridin-4-yl)-1,4-dimethyl-2-oxo-1,4-dihydro-2H-benzo[d][1,3]oxazin-7-yl)amino)isoindoline-1,3-dione], the DC50 [1] was 19 nM, the DC50 [2] was 54 nM and the “HBF AUC” value [3] was “++ (++ = 100 ≤ AUC < 150)”.

In the case of `COc1cc(-c2cc3c(cc2Nc2cccc4c2C(=O)N([C@H]2CCC(=O)NC2=O)C4=O)N(C)C(=O)[C@@H](C)O3)ccn1` [Compound 33, 2-((S)-2,6-dioxopiperidin-3-yl)-4-(((R)-7-(2-methoxypyridin-4-yl)-2,4-dimethyl-3-oxo-3,4-dihydro-2H-benzo[b][1,4]oxazin-6-yl)amino)isoindoline-1,3-dione], the DC50 [1] is reported as 24 nM, the DC50 [2] is reported as 21 nM and the “HBF AUC” value [3] is reported as “+ (+ = 15 ≤ AUC < 100)”.

For `CCOc1nccc(-c2cc3c(cc2Nc2cccc4c2C(=O)N(C2CCC(=O)NC2=O)C4=O)N(C)C(=O)CO3)c1C` (stereo not drawn) [Compound 64, 2-(2,6-dioxopiperidin-3-yl)-4-((7-(2-ethoxy-3-methylpyridin-4-yl)-4-methyl-3-oxo-3,4-dihydro-2H-benzo[b][1,4]oxazin-6-yl)amino)isoindoline-1,3-dione], the DC50 [1] was 53 nM, the DC50 [2] was 12 nM and the “HBF AUC” value [3] was “++ (++ = 100 ≤ AUC < 150)”.

For `Cc1cc(-c2c(Nc3cccc4c3C(=O)N(C3CCC(=O)NC3=O)C4=O)cc3c(c2F)OCC(=O)N3C)cc(C(F)F)n1` (stereo not drawn) [Compound 77, 4-((7-(2-(difluoromethyl)-6-methylpyridin-4-yl)-8-fluoro-4-methyl-3-oxo-3,4-dihydro-2H-benzo[b][1,4]oxazin-6-yl)amino)-2-(2,6-dioxopiperidin-3-yl)isoindoline-1,3-dione], the DC50 [1] was 102 nM, the DC50 [2] was 112 nM and the “HBF AUC” value [3] was “+ (+ = 15 ≤ AUC < 100)”.

`Cc1cc(-c2cc3c(cc2Nc2cccc4c2C(=O)N(C2CCC(=O)NC2=O)C4=O)N(C)CCO3)ccn1` (stereo not drawn) [Compound 1, 2-(2,6-dioxopiperidin-3-yl)-4-((4-methyl-7-(2-methylpyridin-4-yl)-3,4-dihydro-2H-benzo[b][1,4]oxazin-6-yl)amino)isoindoline-1,3-dione] was tested, and the DC50 [1] was 18 nM, the DC50 [2] was 21 nM and the “HBF AUC” value [3] was “+ (+ = 15 ≤ AUC < 100)”.

For `Cc1cc(-c2cc3c(cc2Nc2cccc4c2C(=O)N([C@H]2CCC(=O)NC2=O)C4=O)N(C)C(=O)CO3)c(F)cn1` [Compound 61, (S)-2-(2,6-dioxopiperidin-3-yl)-4-((7-(5-fluoro-2-methylpyridin-4-yl)-4-methyl-3-oxo-3,4-dihydro-2H-benzo[b][1,4]oxazin-6-yl)amino)isoindoline-1,3-dione], the DC50 [1] was 11 nM, the DC50 [2] was 7 nM and the “HBF AUC” value [3] was “++ (++ = 100 ≤ AUC < 150)”.

`CN1C(=O)COc2cc([C@H]3CC[C@H](C#N)CC3)c(Nc3cccc4c3C(=O)N(C3CCC(=O)NC3=O)C4=O)cc21` (stereo partly drawn) [Compound 53, (1r,4r)-4-(6-((2-(2,6-dioxopiperidin-3-yl)-1,3-dioxoisoindolin-4-yl)amino)-4-methyl-3-oxo-3,4-dihydro-2H-benzo[b][1,4]oxazin-7-yl)cyclohexane-1-carbonitrile] was tested, and the DC50 [1] was 10 nM, the DC50 [2] was 4 nM and the “HBF AUC” value [3] was “++ (++ = 100 ≤ AUC < 150)”.

In the case of `Cc1cc(-c2c(Nc3cccc4c3C(=O)N([C@H]3CCC(=O)NC3=O)C4=O)cc3c(c2F)C(C)OC(=O)N3C)ccn1` (stereo partly drawn) [Compound 79, 2-((S)-2,6-dioxopiperidin-3-yl)-4-((5-fluoro-1,4-dimethyl-6-(2-methylpyridin-4-yl)-2-oxo-1,4-dihydro-2H-benzo[d][1,3]oxazin-7-yl)amino)isoindoline-1,3-dione], the DC50 [1] is reported as 28 nM, the DC50 [2] is reported as 27 nM and the “HBF AUC” value [3] is reported as “+ (+ = 15 ≤ AUC < 100)”.

With `CN1C(=O)CCc2cc(C3CCN(C(=O)C4CC4)CC3)c(Nc3cccc4c3C(=O)N(C3CCC(=O)NC3=O)C4=O)cc21` (stereo not drawn) [Compound 93, 4-((6-(1-(cyclopropanecarbonyl)piperidin-4-yl)-1-methyl-2-oxo-1,2,3,4-tetrahydroquinolin-7-yl)amino)-2-(2,6-dioxopiperidin-3-yl)isoindoline-1,3-dione] the DC50 [1] was 15 nM, the DC50 [2] was 4 nM and the “HBF AUC” value [3] was “++ (++ = 100 ≤ AUC < 150)”.

With `Cc1cc(-c2cc3c(cc2Nc2cccc4c2C(=O)N([C@H]2CCC(=O)NC2=O)C4=O)N(C)C(=O)CO3)cc(C)n1` [Compound 8, (S)-4-((7-(2,6-dimethylpyridin-4-yl)-4-methyl-3-oxo-3,4-dihydro-2H-benzo[b][1,4]oxazin-6-yl)amino)-2-(2,6-dioxopiperidin-3-yl)isoindoline-1,3-dione] the DC50 [1] was 21 nM, the DC50 [2] was 15 nM and the “HBF AUC” value [3] was “+++ (+++ = AUC ≥ 150)”.

With `COc1cc(-c2cc3c(cc2Nc2cccc4c2C(=O)N([C@H]2CCC(=O)NC2=O)C4=O)N(C)C(=O)CO3)ccn1` [Compound 17, (S)-2-(2,6-dioxopiperidin-3-yl)-4-((7-(2-methoxypyridin-4-yl)-4-methyl-3-oxo-3,4-dihydro-2H-benzo[b][1,4]oxazin-6-yl)amino)isoindoline-1,3-dione] the DC50 [1] was 18 nM, the DC50 [2] was 13 nM and the “HBF AUC” value [3] was “+++ (+++ = AUC ≥ 150)”.
